Results: US20110144014A1, “CYTOKINE RECEPTOR MODULATORS AND USES THEREOF” (CENTRE HOSPITALIER UNIVERSITAIRE SAINTE-JUSTINE, priority 2005, published 2011)

How the values were obtained:
IL-1R/IL-1RacP = assay: IL-1-induced PGE2 synthesis in endothelial cells; assay type: cell-based, porcine
Experimental: Efficiencies and inhibitory activities of the mutated peptides were determined by measuring the inhibition of IL-1-induced PGE2 synthesis. […] All peptides were tested at concentration 10^−6M.
The arginine of API-101.10 (SEQ ID NO: 10) was replaced by citrulline—to change from a guanidine to a urea group near the N-terminal. Other mutations (e.g. E to Q in API-101.102 and API-101.103) and a truncated peptide at the C-terminal (API-101.108) were also performed to improve the potency and the efficacy of the peptides. Measurement of PGE2 was performed with piglet brain microvessel endothelial cells and WI-38 human fibroblasts. Some of the mutations were advantageous and gave major increases in potency.
IL-1-induced PGE2 synthesis assay on endothelial cells was used as a screening assay for the peptidomimetics.

IL-1R = biological target: T1, IL-1R (Homo sapiens, UniProt P14778); assay: IL-1R antagonist activity, structure vs. activity text, assay not stated
T1 sequence (P14778 18-569): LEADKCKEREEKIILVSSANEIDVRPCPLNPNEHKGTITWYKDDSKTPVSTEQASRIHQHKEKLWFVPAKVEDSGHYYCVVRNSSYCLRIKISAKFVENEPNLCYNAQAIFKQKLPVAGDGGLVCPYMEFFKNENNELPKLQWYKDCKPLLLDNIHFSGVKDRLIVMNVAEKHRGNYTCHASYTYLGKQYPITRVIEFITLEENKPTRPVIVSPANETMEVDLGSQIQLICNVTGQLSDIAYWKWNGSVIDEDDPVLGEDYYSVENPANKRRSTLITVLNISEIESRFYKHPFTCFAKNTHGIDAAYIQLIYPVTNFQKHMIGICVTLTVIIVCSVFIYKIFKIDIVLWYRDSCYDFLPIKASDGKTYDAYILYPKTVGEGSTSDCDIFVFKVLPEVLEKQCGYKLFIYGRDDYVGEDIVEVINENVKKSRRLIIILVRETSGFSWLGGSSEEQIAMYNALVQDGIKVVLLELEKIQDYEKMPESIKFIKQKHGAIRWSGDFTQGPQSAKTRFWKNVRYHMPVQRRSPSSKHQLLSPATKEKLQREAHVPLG
T1 sequence (Q9NPH3 21-570 partner): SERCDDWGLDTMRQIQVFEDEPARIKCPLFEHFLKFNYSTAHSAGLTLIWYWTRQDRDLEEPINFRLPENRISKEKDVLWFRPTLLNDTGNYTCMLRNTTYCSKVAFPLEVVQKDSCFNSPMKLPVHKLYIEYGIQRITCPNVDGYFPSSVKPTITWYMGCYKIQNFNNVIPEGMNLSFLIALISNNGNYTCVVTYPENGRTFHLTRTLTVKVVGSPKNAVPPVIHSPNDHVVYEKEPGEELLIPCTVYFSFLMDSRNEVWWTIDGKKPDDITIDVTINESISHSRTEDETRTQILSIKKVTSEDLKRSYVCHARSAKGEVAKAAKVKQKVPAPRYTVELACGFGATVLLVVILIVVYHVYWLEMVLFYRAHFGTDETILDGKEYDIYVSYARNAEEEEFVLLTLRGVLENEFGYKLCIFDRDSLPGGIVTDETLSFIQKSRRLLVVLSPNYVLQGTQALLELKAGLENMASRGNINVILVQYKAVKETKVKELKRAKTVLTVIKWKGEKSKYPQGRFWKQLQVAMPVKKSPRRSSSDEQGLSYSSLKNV

CC(C)C[C@@H](NC(=O)[C@@H](CCC(=O)O)NC(=O)[C@H]1CC[C@H]2CC[C@@H](NC(=O)[C@@H](Cc3ccc(O)cc3)NC(=O)[C@H](N)CCCNC(=N)N)C(=O)N21)C(=O)N[C@H](C)C(N)=O [API-101.110, RY(I^2aa)ELA]
efficacy relative to API-101.107 (IL-1R/IL-1RacP): twice the efficacy
potency relative to API-101.107 (IL-1R/IL-1RacP): 10 fold
IC50 (IL-1R): 0.01 nM
